In the METLIN SMRT retention time set (Domingo-Almenara et al. 2019) one finds RP-LC retention time data, which are given here for 79 compounds.

The nature of the data set: gradient 5% acetonitrile 3 min, to 50% in 2 min, to 85% in 15 min, held 3 min, 100 µL/min. Particulars: column: Zorbax Extend-C18 2.1 x 50 mm; eluents: water / acetonitrile, 0.1% formic acid. The procedure, abridged: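 A Zorbax Extend-C18 column (2.1 × 50 mm, 1.8 μm) run at 100 μL/min with water and acetonitrile, both containing 0.1% formic acid, separated mixtures of ~100 pure standards. The HPLC was coupled to a quadrupole time-of-flight mass spectrometer operated in positive and negative ionization mode, with dead and dwell volumes of 40 μL and 900 μL. Each retention time was taken from a computationally picked adduct peak that was then manually inspected.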
The compound `Cc1cccc(Nc2c(-c3ccc(O)cc3)nc3ncccn23)c1` returned an RP-LC retention time of 700 s.

As for `Cc1cccc(-c2nc(-c3ccc(-n4ccnc4)nc3)no2)c1`, the RP-LC retention time is 814 s.

In turn, `Cc1nnsc1C(=O)N1CCc2nc(NC(=O)c3ccco3)sc2C1` displayed an RP-LC retention time of 636 s.

As for `O=C(NCc1ccccc1)C1CCCN(S(=O)(=O)c2c[nH]c(C(=O)N3CCCCCC3)c2)C1` (centres undefined), the RP-LC retention time worked out at 826 s.

In the case of `CCc1nnc2cc(N3CCN(Cc4cn[nH]c4-c4ccccc4)CC3)cnn12`, the RP-LC retention time was determined as 541 s.

`CCOc1nc2ccccc2nc1N1CCCC(C(=O)NCc2ccccc2)C1` (centres undefined) showed an RP-LC retention time of 1090 s.

For `O=C(NCc1ccccn1)c1ccc2c(c1)nc1n2CCCCC1`, the RP-LC retention time was determined as 548 s.

Turning to `Cc1ccc(CNC(=O)C2(C)CCCN(C(=O)Nc3cccc(C)c3C)C2)cc1` (centres undefined), the RP-LC retention time was determined as 978 s.

Compound `O=C(O)C1CCCN(CCC=C(c2ccccc2)c2ccccc2)C1` (centres undefined) came in with an RP-LC retention time of 783 s.

For the compound `O=C(NCCn1nnc2cc(C(=O)N3CCCCC3)ccc21)NC1CCCC1`, the RP-LC retention time worked out at 661 s.

The compound `CCn1cnnc1C1CCCN(C(=O)CCc2c[nH]c3ccccc23)C1` (centres undefined) had an RP-LC retention time of 612 s.

With `Cc1ccc(-c2[nH]ncc2CNS(=O)(=O)c2cccc3nsnc23)cc1C`, the RP-LC retention time turned out to be 802 s.

Compound `CN(C)c1nc(N)c(C(=O)N=C(N)N)nc1Cl` displayed an RP-LC retention time of 661 s.

For `Cc1cccc(OCC(=O)N2CCc3cc(-c4csc(C)n4)ccc32)c1`, the RP-LC retention time came out at 847 s.

As to `COC(=O)c1ccc(C2Nc3ccc(C)cc3[C@H]3OCC[C@@H]23)cc1` (some centres undefined), the RP-LC retention time is 1050 s.

`COc1ccc(C2CCCN2C(=O)c2c(Br)cnn2C)cc1` (centres undefined) showed an RP-LC retention time of 841 s.

For `CCCCn1nnc(NCc2ccc(-c3cc(Cl)ccc3Cl)o2)n1`, the RP-LC retention time was 1220 s.

`CCn1c(=O)c(=O)n(CC(=O)NCCN2CCCCC2)c2cccnc21` displayed an RP-LC retention time of 565 s.

Regarding `Cc1nn(CC(=O)NCCCN2CCOCC2)c(=O)c2c(-n3cccc3)n(-c3ccc(F)cc3)nc12`, the RP-LC retention time was found to be 665 s.

The compound `O=C(C1CCCN(c2ncnc3c2nc2n3CCCCC2)C1)N1CCN(c2ncccn2)CC1` (centres undefined) returned an RP-LC retention time of 690 s.

Regarding `Cc1cc(C)cc(NC(=O)C2CCCN(S(=O)(=O)c3cc(-c4noc(C)n4)cs3)C2)c1` (centres undefined), the RP-LC retention time was 1060 s.

In the case of `Cc1nc2ccn(Cc3ccco3)c(=O)c2cc1C(=O)NCCN1CCOCC1`, the RP-LC retention time worked out at 585 s.

`COc1ncc(C(=O)N2CCN(c3ccccc3Cl)CC2)cn1` came in with an RP-LC retention time of 811 s.

For the compound `COc1cccc(S(=O)(=O)N2CCC(c3nc(C(=O)N4CCOCC4)c(C)o3)CC2)c1`, the RP-LC retention time is 794 s.

The compound `CSc1ccc(-c2noc(Cc3nnc(-c4ccc(C)c(C)c4)o3)n2)cc1` displayed an RP-LC retention time of 1190 s.

For `CCCNC(=O)CN1C(=O)C2CCCCN2c2ccc(S(=O)(=O)N3CCCC3)cc21` (centres undefined), the RP-LC retention time is 800 s.

The compound `COCC1(O)CCOC2(CCN(Cc3ccc(C)c(C)c3)CC2)C1` (centres undefined) came in with an RP-LC retention time of 627 s.

Take `O=C(NCc1ccc(F)cc1)c1cc(-c2ccc(F)cc2)ns1`: the RP-LC retention time worked out at 1030 s.

`Cc1ccc(C)c(NS(=O)(=O)c2ccc(-c3c(C)noc3C)cc2)c1` had an RP-LC retention time of 996 s.

Consider `COc1ccc(NC(=O)C2c3cc(OC)c(OC)cc3C(=O)N3CCc4ccccc4C23)cc1OC` (centres undefined), for which the RP-LC retention time amounted to 744 s.

For `O=C(NCCN1CCOCC1)c1ccc2nc(Cc3ccccc3)oc2c1`, the RP-LC retention time amounted to 631 s.

For the compound `CC(C)C(=O)NCc1csc(C2CCCN(C(=O)c3cc(F)cc(F)c3)C2)n1` (centres undefined), the RP-LC retention time came out at 757 s.

`O=C1NC2(CCN(C(=O)Cc3cccc(F)c3)CC2)Nc2cc(Cl)ccc21` displayed an RP-LC retention time of 808 s.

On to `Cc1[nH]nc(-c2ccc(S(=O)(=O)N3CCC(C)CC3)o2)c1C`, for which the RP-LC retention time worked out at 932 s.

On to `CCOC(=O)c1nc(Nc2ccccc2Cl)c2ccccc2n1`, for which the RP-LC retention time is 913 s.

In the case of `COC(=O)Nc1nc(CC(=O)Nc2ccc(F)c(Cl)c2)cs1`, the RP-LC retention time was 744 s.

As for `Cc1cccc(N2CCN(C(=O)c3ccc4c(c3)N(C)C(=O)C3CCCCN43)CC2)c1C` (centres undefined), the RP-LC retention time was 1170 s.

In turn, `CCOc1ccc(NS(=O)(=O)c2cc(C(=O)N3CCN(c4ccccc4F)CC3)n[nH]2)cc1` had an RP-LC retention time of 922 s.

`CN(C)C(=O)c1csc(S(=O)(=O)N2CCC(C(=O)NCc3cccnc3)CC2)c1`: the RP-LC retention time came to 579 s.

With `CCNC(=O)C1CCCN(c2nc3ncn(CC(=O)Nc4ccc(C)c(C)c4)c(=O)c3s2)C1` (centres undefined), the RP-LC retention time was 711 s.

As to `CCOc1ccc(C(=O)NC2CCN(c3cc(-c4ccc(Cl)cc4)[nH]n3)C2)cc1` (centres undefined), the RP-LC retention time was 820 s.

The compound `CCCN(CC1CCOC1)C(=O)Nc1ccc(C)cc1` (centres undefined) yielded an RP-LC retention time of 764 s.

`O=C(NCc1ccco1)C1CN(C(=O)c2ccc(F)c(F)c2)C1` came in with an RP-LC retention time of 663 s.

`O=C(Cn1cccc1-c1nc(-c2ccccc2)cs1)N1CCN(C(=O)c2ccco2)CC1` returned an RP-LC retention time of 899 s.

As to `O=C(CCC(=O)N1CC2CCCN2c2ccccc21)NCCc1cccs1` (centres undefined), the RP-LC retention time is 906 s.

`Cc1ccn2c(NC(=O)c3cccc(C(F)(F)F)c3)c(-c3ccc(F)cc3)nc2c1` had an RP-LC retention time of 752 s.

For the compound `CCn1cnc(S(=O)(=O)N2CCCC(C(=O)Nc3ccc(F)cc3F)C2)c1` (centres undefined), the RP-LC retention time is 742 s.

`Cc1ccc(-c2nnc(-c3nn(C)c4c3CN(S(=O)(=O)c3ccc(C(C)C)cc3)CC4)o2)cc1`: the RP-LC retention time is 1160 s.

For the compound `O=C(Cn1nc2c(Oc3ccccc3)nccn2c1=O)Nc1cc(C(F)(F)F)ccc1Cl`, the RP-LC retention time came to 960 s.

`COCCn1nc2n(c1=O)CCN(C(=O)c1ccc(Br)o1)CC2` yielded an RP-LC retention time of 636 s.

`CCN1CCN(CC2=C(C(=O)OC)C(c3ccccc3C)NC(=O)N2)CC1` (centres undefined) yielded an RP-LC retention time of 615 s.

`Oc1ccc2ccc3[nH]cnc3c2c1` came in with an RP-LC retention time of 625 s.

Take `Cc1oc(C2CCN(S(=O)(=O)c3ccc(Cl)cc3)CC2)nc1C(=O)N1CCCC1`: the RP-LC retention time is 977 s.

For `CCCN(CCC)c1nc(-c2ccc(OC)cc2)nc2ccccc12`, the RP-LC retention time worked out at 896 s.

As for `Cc1cc(OCC(=O)Nc2ccc(F)cc2Cl)nc(N2CCN(c3ccccc3)CC2)n1`, the RP-LC retention time came out at 976 s.

In turn, `Cc1nc(-c2ccccc2)sc1C(=O)N1CCC(C(C)C(=O)N2CCOCC2)CC1` (centres undefined) registered an RP-LC retention time of 728 s.

For the compound `CCCN1C(=O)CCc2cc(NS(=O)(=O)c3ccc(CC)cc3)ccc21`, the RP-LC retention time came out at 907 s.

`O=c1c2cc(-c3ccc(F)cc3)nn2ccn1Cc1noc(CN2CCc3ccccc32)n1`: the RP-LC retention time stood at 1050 s.

Compound `COc1cccc(CNC(=O)Cn2ccc3ccc(-c4nnc(C)o4)cc32)c1` displayed an RP-LC retention time of 756 s.

Compound `COc1cccc(CNC(=O)C2(c3ccc(NC(=O)C(C)C)cc3)CCCCC2)c1` yielded an RP-LC retention time of 950 s.

Turning to `O=C(NCCc1cn2c(n1)SCC2)C(=O)Nc1ccc2c(c1)OCCO2`, the RP-LC retention time is 556 s.

Consider `CCOc1ccccc1-c1nc(-c2cn(Cc3ccc(F)cc3)nn2)no1`, for which the RP-LC retention time is 1020 s.

Consider `O=C(Cn1nc2n(c1=O)CCCC2)NCCc1ccc(Cl)cc1`, for which the RP-LC retention time amounted to 678 s.

Consider `CCN1C(=O)C2(CCN(S(=O)(=O)c3cc(Cl)ccc3OC)CC2)c2ccccc21`, for which the RP-LC retention time amounted to 1000 s.

In the case of `Cc1c(-c2noc(-c3cccc(F)c3)n2)nnn1-c1ccc(F)cc1`, the RP-LC retention time was 1100 s.

As for `C=CCn1c(=O)c2c(nc3n2CCCCN3c2ccc(OCC)cc2)n(C)c1=O`, the RP-LC retention time worked out at 917 s.

For `COc1cccc(CNC(=O)Cn2c(=O)c(CCC(=O)NCC(C)C)nc3ccccc32)c1OC`, the RP-LC retention time was 757 s.

Consider `COc1ccc(C(=O)N2CCc3ccc(C(=O)Nc4ccc5c(c4)OCO5)cc32)cc1`, for which the RP-LC retention time stood at 773 s.

For the compound `CC(C)n1nnc2cc(C(=O)N(C)CC(=O)Nc3ccc(Cl)cc3)ccc21`, the RP-LC retention time was 793 s.

As for `COc1ccc(C(=O)CSc2nnc(NC(=O)CN(C)S(C)(=O)=O)s2)cc1`, the RP-LC retention time was determined as 700 s.

As for `Cn1ncc2c(N3CCN(c4ccc(F)cc4)CC3)ncnc21`, the RP-LC retention time turned out to be 802 s.

For the compound `O=C(Nc1nccs1)c1ccc(Cl)c(S(=O)(=O)N2CCOCC2)c1`, the RP-LC retention time turned out to be 729 s.

As for `COc1ccc2[nH]c3c(c2c1)CCNC31CCN(S(=O)(=O)c2c(C)noc2C)CC1`, the RP-LC retention time worked out at 675 s.

In the case of `CCS(=O)(=O)Nc1ccc(Nc2c3ccccc3nc3ccccc23)c(OC)c1`, the RP-LC retention time stood at 649 s.

For `CCCNC(=O)C1CCCN(c2nc3ncn(CC(=O)Nc4ccc(C)c(C)c4)c(=O)c3s2)C1` (centres undefined), the RP-LC retention time came to 715 s.

In turn, `CCOC(=O)C1CCN(C(=O)c2cc(CC)n3nc(-c4ccco4)cc3n2)CC1` yielded an RP-LC retention time of 886 s.

Compound `COCCn1cc(CCNC(=O)Nc2cc(C)cc(C)c2)c2cccnc21` came in with an RP-LC retention time of 776 s.

For the compound `COC(=O)C(C)NC(=O)NCc1cccn1Cc1cccc(F)c1` (centres undefined), the RP-LC retention time is 792 s.

For `Cc1cccc(NC(=O)N2CCCC2c2c(C)noc2C)c1` (centres undefined), the RP-LC retention time came out at 771 s.
